Laboratory results published in patent publication US12677832B2, “Oxadiazole compounds for controlling or preventing phytopathogenic fungi” (PI INDUSTRIES LTD., priority 2019, dated 2026).

Experiments:
Type in all cases: cell-based
Botrytis cinerea = Botrytis cinerea (Gray Mold) radial growth on potato dextrose agar; details: 300 ppm; radial growth after seven days compared to untreated control
Pyricularia oryzae = assay: microbe, parasite or virus in culture; details: 168 h, read-out: control
Alternaria solani = Alternaria solani (Early Blight of Tomato/Potato) radial growth on potato dextrose agar; details: 168 h, radial growth after seven days compared to untreated control
Fusarium culmorum = Fusarium culmorum (Foot Rot of Cereals) radial growth on potato dextrose agar; details: 300 ppm; radial growth after seven days compared to untreated control
Experimental: Example 6: Fusarium culmorum (Foot Rot of Cereals)
Compounds were dissolved in 0.3% dimethyl sulfoxide and then added to potato dextrose agar medium just prior to dispensing it into petri dishes. 5 mL medium with the compound in the desired concentration was dispensed into 60 mm sterile petri-plates. After solidification each plate was seeded with a 5 mm size mycelial disc taken from the periphery of an actively growing virulent culture plate. Plates were incubated in growth chambers at 25° C. temperature and 60% relative humidity for seven days and then the radial growth was measured and compared to that of the untreated control.

O=C(COc1ccccc1F)c1ccc(-c2noc(C(F)(F)F)n2)cn1 [Compound 114, 2-(2-fluorophenoxy)-1-(5-(5-(trifluoromethyl)-1,2,4-oxadiazol-3-yl)pyridin-2-yl)ethan-1-one]
control (Botrytis cinerea): ≥ 70% | inhibition of growth at 300 ppm (Pyricularia oryzae): ≥ 70%

O=C(CNc1ccc(Cl)c(C(F)(F)F)c1)c1ccc(-c2noc(C(F)(F)F)n2)cc1 [Compound 140, 2-((4-chloro-3-(trifluoromethyl)phenyl)amino)-1-(4-(5-(trifluoromethyl)-1,2,4-oxadiazol-3-yl)phenyl)ethan-1-one]
inhibition of growth at 300 ppm (Alternaria solani): ≥ 70% | control (Fusarium culmorum): ≥ 70%
